Laboratory results reported in patent EP4620466A1, “TRIMETHOXYSTYRYL DERIVATIVES FOR USE IN THE TREATMENT OF PACLITAXEL-RESISTANT CANCER” (Instituto de Investigación Biomédica de Salamanca De la …, priority 2024, dated 2025).

tested on: HeLa cells; assay: Cell proliferation assay (XTT), cytostatic activity; type: cell-based; details: 72-h treatment, XTT cell proliferation kit
Method: […] cells were seeded in 96-well plates and incubated in the presence or the absence of the indicated compounds at concentrations ranging from 10^-5 to 10^-12 M. The cytostatic activity was measured after 72-h treatments using the XTT (sodium 3'-[1-(phenylaminocarbonyl)-3,4-tetrazolium]-bis(4- methoxy-6-nitro)-benzenesulfonic acid hydrate) cell proliferation kit (Roche Molecular Biochemicals; Mannheim, Germany) following the manufacturer's specifications. Each condition was seeded in triplicate, and experiments were repeated three times to calculate IC values by non-linear regression fitting the data.

Q: For C=C(c1cc(Cl)nc(SC)c1)c1ccc2c(c1)c(C#N)cn2C [Compound 71], which IC50 is on record?
A: Its IC50 is 100 nM.

Q: “5-(N-(3,5-dimethoxyphenyl)sulfamoyl)-1-methyl-1H-indole-3-carboxamide [Compound 54]” was tested. Which IC50 did it give?
A: Its IC50 is 1770 nM.

Q: For COc1ccc(C(C)c2ccc3c(c2)c(C=NN)cn3C)c(OC)c1OC (stereo not drawn) [Compound 22], which IC50 is on record?
A: Its IC50 is 420 nM.

Q: “1-Methyl-5-[1-(2,3,4-trimethoxyphenyl)vinyl]-1H-indol-3-ylmethanol [Compound 18]” was tested. Which IC50 did it give?
A: The IC50 was 300 nM.

Q: Which IC50 does the source give for COc1cc(C(=NO)c2ccc3c(ccn3C)c2)cc(OC)c1OC (mixture of isomers) [Compound 7, (E/Z)-(I-Methyl-1H-indol-5-yl)(3,4,5-trimethoxyphenyl)methanone oxime] here?
A: The IC50 was 360 nM.

Q: For “1-Methyl-5-(2,3,4- trimethoxybenzoyl)-1H-indole-3-carbonitrile [Compound 26]”, which IC50 is on record?
A: Its IC50 is > 1000 nM.

same assay, conditions: Homo sapiens, 72-h treatment, XTT cell proliferation kit

Q: CN(C)c1cc(C(=O)c2ccc3c(ccn3C)c2)cc(Cl)n1 [Compound 98, (2-chloro-6-(dimethylamino)pyridin-4-yl)(1-methyl-1H-indol-5-yl)methanone] was tested. Which IC50 did it give?
A: The IC50 was > 1000 nM.

Q: Which IC50 does the source give for C=C(c1cc(OC)c(OC)c(OC)c1)c1ccc2c(c1)c(C=NN)cn2C [Compound 21, (1-Methyl-5-[1-(3,4,5-trimethoxyphenyl)vinyl]-1H-indol-3-yl)methylene hydrazine] here?
A: The IC50 was 38 nM.

Q: For C=C(c1cc(SC)nc(SC)c1)c1ccc2c(c1)c(C(N)=O)cn2C [Compound 78, 5-(1-(2,6-bis(methylsulfanyl)pyridin-4-yl)vinyl)-1-methyl-1H-indole-3-carboxamide], which IC50 is on record?
A: Its IC50 is 600 nM.

Q: For CSc1cc(C(=NO)c2ccc3c(ccn3C)c2)cc(SC)n1 (mixture of isomers) [Compound 75, (E/Z)-(2,6-bis(methylsulfanyl)pyridin-4-yl) (1-methyl-1H-indol-5-yl)methanone oximes], which IC50 is on record?
A: The IC50 was 500 nM.

Q: For Cn1cc(C#N)c2cc(C(=NO)c3cc(Cl)nc(Cl)c3)ccc21 [Compound 60, 5-((2,6-dichloropyridin-4-yl)(hydroxyimino)methyl)-1-methyl-1H-indole-3-carbonitrile], which IC50 is on record?
A: The IC50 was > 1000 nM.

Q: Which IC50 does the source give for C=C(c1cc(Cl)nc(SC)c1)c1ccc2c(c1)c(C(N)=O)cn2C [Compound 70, 5-(1-(2-chloro-6-(methylsulfanyl)pyridin-4-yl)vinyl)-1-methyl-1H indole-3-carboxamide] here?
A: Its IC50 is > 1000 nM.

Q: C=C(c1cc(Cl)nc(SC)c1)c1ccc2c(c1)c(C=O)cn2C [Compound 68, 5-(1-(2-chloro-6-(methylsulfanyl)pyridin-4-yl)vinyl)-1-methyl-1H-indole-3-carbaldehyde] was tested. Which IC50 did it give?
A: The IC50 was 70 nM.

Q: With CSc1cc(C(=O)c2ccc3c(ccn3C)c2)cc(N(C)C)n1 [Compound 89, (2-(dimethylamino)-6-(methylthio)pyridin-4-yl)(1-methyl-1H-indol-5-yl)methanone] as the compound, how does the IC50 read?
A: The IC50 was 500 nM.

Q: For C=C(c1cc(Cl)nc(N(C)C)c1)c1ccc2c(c1)c(C=O)cn2C [Compound 101, 5-(1-(2-chloro-6-(dimethylamino)pyridin-4-yl)vinyl)-1-methyl-1H-indole-3-carbaldehyde], which IC50 is on record?
A: The IC50 was > 1000 nM.

Q: For C=C(c1cc(OC)nc(SC)c1)c1ccc2c(c1)c(C(=O)O)cn2C [Compound 86, 5-(1-(2-methoxy-6-(methylsulfanyl)pyridin-4-yl)vinyl)-1-methyl-1H-indole-3-carboxylic acid], which IC50 is on record?
A: The IC50 was > 1000 nM.

Q: Which IC50 does the source give for C=C(c1ccc2c(ccn2C)c1)c1ccc(OC)c(OC)c1OC [Compound 6, 1-methyl-5-(1-(2,3,4-trimethoxyphenyl)vinyl)-1H-indole] here?
A: Its IC50 is 32 nM.

Q: Which IC50 does the source give for C=C(c1cc(SC)nc(SC)c1)c1ccc2c(c1)c(C(=O)O)cn2C [Compound 80, 5-(1-(2,6-Bis(methylsulfanyl)pyridin-4-yl)vinyl)-1-methyl-1H-indole-3-carboxylic acid] here?
A: The IC50 was > 1000 nM.

Q: Which IC50 does the source give for C=C(c1cc(Cl)nc(Cl)c1)c1ccc2c(ccn2C)c1 [Compound 56, 5-(1-(2,6-dichloropyridin-4-yl)vinyl)-1-methyl-1H-indole] here?
A: Its IC50 is 40 nM.

Q: How did the IC50 turn out when C=C(c1cc(Cl)nc(SC)c1)c1ccc2c(ccn2C)c1 [Compound 65, 5-(1-(2-Chloro-6-(methylsulfanyl)pyridin-4-yl)vinyl)-1-methyl-1H-indole] was run?
A: Its IC50 is 100 nM.

Q: Which IC50 does the source give for COc1cc(C(=O)c2ccc3c(c2)c(C(=O)O)cn3C)cc(OC)c1OC [Compound 15, 1-Methyl-5-(3,4,5-trimethoxybenzoyl)-1H-indole-3-carboxylic acid] here?
A: Its IC50 is 7000 nM.

Q: With C=C(c1cc(SC)nc(N(C)C)c1)c1ccc2c(c1)c(C(N)=O)cn2C [Compound 97, 5-(1-(2-(dimethylamino)-6-(methylthio)pyridin-4-yl)vinyl)-1-methyl-1H-indole-3-carboxamide] as the compound, how does the IC50 read?
A: Its IC50 is 600 nM.

Q: How did the IC50 turn out when COc1cc(C(=NO)c2ccc3c(ccn3C)c2)cc(SC)n1 [Compound 83, (2-methoxy-6-(methylsulfanyl)pyridin-4-yl)(1-methyl-1H-indol-5-yl)methanone oxime] was run?
A: The IC50 was 200 nM.

Q: For COc1ccc(C(O)c2ccc3c(ccn3C)c2)c(OC)c1OC (stereo not drawn) [Compound 2, (1-methyl-1H-indol-5-yl)(2,3,4-trimethoxyphenyl)methanol], which IC50 is on record?
A: Its IC50 is > 1000 nM.

Q: How did the IC50 turn out when C=C(c1cc(OC)c(OC)c(OC)c1)c1ccc2c(ccn2C)c1 [Compound 5, 1-methyl-5-(1-(3,4,5-trimethoxyphenyl)vinyl)-1H-indole] was run?
A: Its IC50 is 2.7 nM.

Q: C=C(c1cc(SC)nc(SC)c1)c1ccc2c(c1)c(C#N)cn2C [Compound 79, 5-(1-(2,6-bis(methylsulfanyl)pyridin-4-yl)vinyl)-1-methyl-1H-indole-3-carbonitrile] was tested. Which IC50 did it give?
A: The IC50 was 600 nM.

Q: COc1cc(C(C)c2ccc3c(ccn3C)c2)cc(OC)c1OC (stereo not drawn) [Compound 13, 1-Methyl-5-(1-(3,4,5-trimethoxyphenyl)ethyl)-1H-indole] was tested. Which IC50 did it give?
A: The IC50 was 0.64 nM.

Q: How did the IC50 turn out when C=C(c1cc(OC)nc(SC)c1)c1ccc2c(c1)c(C=O)cn2C [Compound 85, 5-(1-(2-methoxy-6-(methylsulfanyl)pyridin-4-yl)vinyl)-1-methyl-1H-indole-3-carbaldehyde] was run?
A: Its IC50 is 400 nM.

Q: COc1cc(C(=O)c2ccc3c(ccn3C)c2)cc(OC)c1OC [Compound 3, (1-methyl-1H-indol-5-yl)(3,4,5-trimethoxyphenyl)methanone] was tested. Which IC50 did it give?
A: Its IC50 is 25 nM.

Q: Which IC50 does the source give for C=C(c1cc(SC)nc(N(C)C)c1)c1ccc2c(c1)c(C=O)cn2C [Compound 93, 5-(1-(2-(dimethylamino)-6-(methylthio)pyridin-4-yl)vinyl)-1-methyl-1H-indole-3-carbaldehyde] here?
A: Its IC50 is 300 nM.

Q: Which IC50 does the source give for CSc1cc(C(=NO)c2ccc3c(c2)c(C#N)cn3C)cc(N(C)C)n1 [Compound 95, 5-((2-(dimethylamino)-6-(methylthio)pyridin-4-yl)(hydroxyimino)methyl)-1-methyl-1H-indole-3-carbonitrile] here?
A: The IC50 was 300 nM.

Q: Which IC50 does the source give for C=C(c1ccc2c(c1)c(C=NO)cn2C)c1ccc(OC)c(OC)c1OC [Compound 20, 1-Methyl-5-[1-(2,3,4-trimethoxyphenyl)vinyl]-1H-indol-3-carbaldehyde oxime] here?
A: Its IC50 is 34 nM.

Q: With C=C(c1cc(SC)nc(N(C)C)c1)c1ccc2c(c1)c(C(=O)O)cn2C [Compound 94, 5-(1-(2-(dimethylamino)-6-(methylthio)pyridin-4-yl)vinyl)-1-methyl-1H-indole-3-carboxylic acid] as the compound, how does the IC50 read?
A: Its IC50 is 700 nM.

Q: Which IC50 does the source give for Cn1ccc2cc(C(=O)c3cc(Cl)nc(Cl)c3)ccc21 [Compound 55, (2,6-dichloropyridin-4-yl)(1-methyl-1H-indol-5-yl)methanone] here?
A: The IC50 was 800 nM.

Q: How did the IC50 turn out when C=C(c1cc(SC)nc(N(C)C)c1)c1ccc2c(c1)c(C#N)cn2C [Compound 96, 5-(1-(2-(dimethylamino)-6-(methylthio)pyridin-4-yl)vinyl)-1-methyl-1H-indole-3-carbonitrile] was run?
A: The IC50 was 600 nM.

Q: For C=C(c1cc(OC)c(OC)c(OC)c1)c1ccc2c(c1)c(CO)cn2C [Compound 17, 1-Methyl-5-[1-(3,4,5-trimethoxyphenyl)vinyl]-1H-indol-3-ylmethanol], which IC50 is on record?
A: Its IC50 is 310 nM.

Q: For CSc1cc(C(=NO)c2ccc3c(c2)c(C#N)cn3C)cc(Cl)n1 (mixture of isomers) [Compound 69, (E/Z)-5-((2-chloro-6-(methylsulfanyl)pyridin-4-yl)(hydroxyimino)methyl)-1-methyl-1H-indole-3-carbonitrile], which IC50 is on record?
A: Its IC50 is 60 nM.

Q: C=C(c1cc(OC)c(OC)c(OC)c1)c1ccc2c(c1)c(C(=O)O)cn2C [Compound 16, 1-Methyl-5-(1-(3,4,5-trimethoxyphenyl)vinyl)-1H-indole-3-carboxylic acid] was tested. Which IC50 did it give?
A: The IC50 was > 10000 nM.

Q: COc1cc(/C=C\c2ccc3c(ccn3C)c2)cc(OC)c1OC [Compound 27, (Z)-1-Methyl-5-[2-(3,4,5-trimethoxyphenyl)vinyl)-1H-indole] was tested. Which IC50 did it give?
A: Its IC50 is 250 nM.

Q: For COc1ccc(/C(=N\O)c2ccc3c(ccn3C)c2)c(OC)c1OC [Compound 8, Z-(1-methyl-1H-indol-5-yl)(2,3,4-trimethoxyphenyl)methanone oxime], which IC50 is on record?
A: Its IC50 is 76 nM.

Q: For CSc1cc(C(=O)c2ccc3c(c2)c(C=O)cn3C)cc(SC)n1 [Compound 76, 5-(2,6-bis(methylsulfanyl)isonicotinoyl)-1-methyl-1H-indole-3-carbaldehyde], which IC50 is on record?
A: Its IC50 is > 1000 nM.

Q: CSc1cc(C(=NO)c2ccc3c(ccn3C)c2)cc(Cl)n1 (mixture of isomers) [Compound 66, (E/Z)-(2-chloro-6-(methylsulfanyl)pyridin-4-yl) (1-methyl-1H-indol-5-yl)methanone oxime] was tested. Which IC50 did it give?
A: The IC50 was 300 nM.

Q: How did the IC50 turn out when C=C(c1cc(OC)c(OC)c(OC)c1)c1ccc2c(c1)c(C=O)cn2C [Compound 11, 1-Methyl-5-[1-(3,4,5-trimethoxyphenyl)vinyl]-1H-indole-3-carbaldehyde] was run?
A: Its IC50 is 20 nM.

Q: How did the IC50 turn out when C=C(c1cc(OC)c(OC)c(OC)c1)c1ccc2c(c1)c(C=NO)cn2C [Compound 19, 1-Methyl-5-[1-(3,4,5-trimethoxyphenyl)vinyl]-1H-indole-3-carbaldehyde oxime] was run?
A: The IC50 was 6.2 nM.

Q: Which IC50 does the source give for C=C(c1cc(SC)nc(SC)c1)c1ccc2c(c1)c(C=O)cn2C [Compound 77, 5-(1-(2,6-bis(methylsulfanyl)pyridin-4-yl)vinyl)-1-methyl-1H-indole-3-carbaldehyde] here?
A: Its IC50 is 100 nM.
